Here are results for 2 compounds from doi:10.1101/2023.02.21.529347v1 (biorxiv, 2023).

SMILES strings stand for the structures.

Common to all, as to assay: apparent steady-state kinetics of F420H2-dependent alkene reduction
For one experiment, the target named is T1, MSMEG_2027 (Mycolicibacterium smegmatis, UniProt A0QU01).
T1 sequence (A0QU01 1-140): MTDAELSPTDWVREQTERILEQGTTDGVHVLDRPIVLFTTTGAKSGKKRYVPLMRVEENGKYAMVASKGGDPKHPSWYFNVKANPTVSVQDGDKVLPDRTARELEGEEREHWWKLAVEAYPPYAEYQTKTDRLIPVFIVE
Type of experiment: biochemical. The settings on record: substrate inhibition constant; co-substrate F420H2.

In experiment [1] the target is T2, MSMEG_2850 (Mycolicibacterium smegmatis, UniProt A0QW82).
T2 sequence (A0QW82 1-140): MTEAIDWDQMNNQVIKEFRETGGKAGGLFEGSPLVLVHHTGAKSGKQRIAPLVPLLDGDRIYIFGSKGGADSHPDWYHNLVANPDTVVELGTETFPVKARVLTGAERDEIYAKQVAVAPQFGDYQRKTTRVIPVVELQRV
Type of experiment: biochemical. Particulars: substrate inhibition constant; co-substrate F420H2.

Experiment [2] deals with T2, MSMEG_2850. The settings on record: co-substrate F420H2; apparent value.

Consider `CC1=CC(=O)CC(C)(C)C1=O` [7a, ketoisophorone], for which the Ki on MSMEG_2027 is 26.9 ± 11.4 mM; on MSMEG_2850 [1] it was 47.9 ± 10.0 mM.
Take `CC1=CC(=O)[C@H]2C[C@@H]1C2(C)C` [9a, (1S,5S)-(-)-verbenone]: the Km (commonly the substrate concentration at which the rate is half of its maximum) on MSMEG_2850 [2] was 180 ± 30 µM.
